Source: patent publication US8338473B2, “Derivatives of psammaplin A, a method for their synthesis and their uses for the prevention or treatment of cancer” (Centre National de la Recherche Scientifique, priority 2007, dated 2012)

Key:
[1] = system: U937 acute myeloid leukemia cell line; assay: Cell cycle analysis in U937 cells; type: cell-based, human; settings: U937, 30 hrs
Protocol: (§1) FIG. 1: a) Cell cycle analysis of U937 cells treated for 30 hrs with the indicated compounds used at 1 and 5 μM; b) Caspase 3 apoptotic assay of the indicated compounds after 24 hrs of treatment in the U937 cells; c) Tubulin acetylation and p21 expression levels at 6 and 16 hrs after treatment with the indicated compounds; total tubulin expression levels are used for equal loading; d) Histone H3 acetylation and K9 H3 methylation expression levels at 6 and 16 hrs after treatment with the indicated compounds; total tubulin expression levels are used for equal loading; e) K9, K14, K18 histone H3 acetylation expression levels at 6 and 16 hrs after treatment with the indicated compounds; total ERKs expression levels are used for equal loading; f) HDAC1 enzymatic assay: IP-HDAC1 is incubated with the indicated inhibitors for 24 Hrs; activity is measured as ^3H-acetyl release; g) HDAC4 enzymatic assay: IP-HDAC4 is incubated with the indicated inhibitors for 24 hrs; activity is measured as ^3H-acetyl release.
FIG. 3: a) Cell cycle and apoptosis analysis carried out in U937 cells after 24 hrs with the indicated compounds; values are media of independent triplicates; b) CD11c expression analysis carried out in U937 cells with the indicated compounds; values are media of independent duplicates; c) Tubuline acetylation and p21 expression levels in U937 cells after 24 hrs with the indicated treatments; total ERKs expression levels are used for equal loading; d) acetylation of histone H3 under the conditions indicated in (c).
(§2) Human leukemia cell line U937 was propagated in RPMI medium supplemented with 10% FBS (Foetal bovine serum; Hyclone) and antibiotics (100 U/mL penicillin, 100 μg/mL streptomycin and 250 ng/mL amphotericin-B). Cells were kept at the constant concentration of 200000 cells per milliliter of culture medium. For AML samples, bone marrow containing 80% to 90% leukemic blasts was purified over Ficoll. This study was approved by the Ethical Committee of the Second University of Naples.
MS-275 (Schering A G) was dissolved in ethanol and used at 5×10^−6M; valproic acid (VPA; Sigma) was used at 1 mM. All other compounds described were dissolved in DMSO (Sigma-Aldrich) and used at 1 or 5 μM.
2.5×10^5 cells were collected and resuspended in 500 μL of a hypotonic buffer (0.1% Triton X-100, 0.1% sodium citrate, 50 μg/mL propidium iodide, RNAse A). Cells were incubated in the dark for 30 min. Samples were acquired on a FACS-Calibur flow cytometer using the Cell Quest software (Becton Dickinson) and analysed with standard procedures using the Cell Quest software (Becton Dickinson) and the ModFit LT version 3 Software (Verity). All the experiments were performed 3 times.

[2] = system: DNA methyltransferase (DNMT); assay: DNMT enzymatic in vitro assay; type: biochemical; settings: 1.5 and 50 μM
Protocol: FIG. 2: a) Methylation specific PCR for the RARβ gene after 16 and 24 hrs of treatment with the indicated compounds; b) Methylation specific PCR for the p16 gene after 24 hrs of the indicated treatments. Samples are representative of real duplicates; c) p16 expression levels in U937 cells after 24 hrs with the indicated treatments; d) DNMT enzymatic in vitro assay carried out with 1.5 and 50 μM of the indicated compounds;

[3] = molecular target: human recombinant SIRT2 (Homo sapiens, UniProt Q8IXJ6); assay: SIRT activity assay, SIRT2; type: biochemical
Protocol: FIG. 13A: % of SIRT1 and SIRT2 activity with controls, sodium suramine, a sirtuin inhibitor, and resveratrol a SIRT1 activator, and with UVI5008 at concentrations of 50 μM and 5 μM.
The SIRT activity assay was performed using the human recombinant SIRT1 and SIRT2. SIRT1 (1 U/well) or SIRT2 (5 U/well), respectively, were incubated (37° C. for 1 h) with the SIRT1/2 substrate (corresponding to a p53 acetylated peptide) in the presence of NAD^+ and various concentrations of tested compounds (sirtuins activators or inhibitors). Activity was measured as fluorescence intensity. As internal controls, sodium suramin, a sirtuin inhibitor, and resveratrol, a SIRT1 activator, have been included. The fluorescence was measured on a fluorometric reader (Inphinite 200 TECAN) with excitation set at 360 nm and emission detection set at 460 nm

[4] = molecular target: T1, HDAC6 (Homo sapiens, UniProt Q9UBN7); assay: Alpha tubulin acetylation in U937 cells (HDAC6 readout); type: cell-based; settings: U937, 6 and 16 hrs
T1 construct: Tubuline acetylation and p21 expression levels in U937 cells after 24 hrs with the indicated treatments; endogenous in cells; host or cells: U937
Protocol: as §1, with “release. […]” for “release.”

[5] = system: ex vivo AML patient blasts; assay: Cell cycle and apoptosis in ex vivo AML patient blasts; type: cell-based, human
Protocol: FIG. 4: a) Cell cycle analyses and apoptosis carried out in ex vivo samples from AML patients identified with numbers; b) Cell cycle analysis, apoptosis and histone H3 acetylation levels of #116 AML cells after 20 hrs is of the indicated treatments.
as §2

[6] = system: breast cancer cells (ZR75.1); assay: Anti-proliferative and apoptogenic action in breast cancer cells; type: cell-based; settings: data not shown
[7] = system: A-375 cells; assay: MTT cytotoxicity assay, A-375; settings: read-out: IC50 values, MTT cytotoxicity assay; A-375, 48 h
Protocol: Plates were kept in the humidified CO2 (5%) incubator overnight so that cells get attached to the bottom. […] Viable cells cleave the MTT tetrazolium ring into a dark blue formazan reaction product, whereas dead cells remain colorless. The MTT-containing medium was gently removed and DMSO was added in each well. After shaking, the plates were read in absorbance at 540 nm. All results are expressed as the average of three wells. Percent cytotoxicity was measured of each compound and represented in terms of its IC50 values.

T1 sequence (Q9UBN7 whole entry): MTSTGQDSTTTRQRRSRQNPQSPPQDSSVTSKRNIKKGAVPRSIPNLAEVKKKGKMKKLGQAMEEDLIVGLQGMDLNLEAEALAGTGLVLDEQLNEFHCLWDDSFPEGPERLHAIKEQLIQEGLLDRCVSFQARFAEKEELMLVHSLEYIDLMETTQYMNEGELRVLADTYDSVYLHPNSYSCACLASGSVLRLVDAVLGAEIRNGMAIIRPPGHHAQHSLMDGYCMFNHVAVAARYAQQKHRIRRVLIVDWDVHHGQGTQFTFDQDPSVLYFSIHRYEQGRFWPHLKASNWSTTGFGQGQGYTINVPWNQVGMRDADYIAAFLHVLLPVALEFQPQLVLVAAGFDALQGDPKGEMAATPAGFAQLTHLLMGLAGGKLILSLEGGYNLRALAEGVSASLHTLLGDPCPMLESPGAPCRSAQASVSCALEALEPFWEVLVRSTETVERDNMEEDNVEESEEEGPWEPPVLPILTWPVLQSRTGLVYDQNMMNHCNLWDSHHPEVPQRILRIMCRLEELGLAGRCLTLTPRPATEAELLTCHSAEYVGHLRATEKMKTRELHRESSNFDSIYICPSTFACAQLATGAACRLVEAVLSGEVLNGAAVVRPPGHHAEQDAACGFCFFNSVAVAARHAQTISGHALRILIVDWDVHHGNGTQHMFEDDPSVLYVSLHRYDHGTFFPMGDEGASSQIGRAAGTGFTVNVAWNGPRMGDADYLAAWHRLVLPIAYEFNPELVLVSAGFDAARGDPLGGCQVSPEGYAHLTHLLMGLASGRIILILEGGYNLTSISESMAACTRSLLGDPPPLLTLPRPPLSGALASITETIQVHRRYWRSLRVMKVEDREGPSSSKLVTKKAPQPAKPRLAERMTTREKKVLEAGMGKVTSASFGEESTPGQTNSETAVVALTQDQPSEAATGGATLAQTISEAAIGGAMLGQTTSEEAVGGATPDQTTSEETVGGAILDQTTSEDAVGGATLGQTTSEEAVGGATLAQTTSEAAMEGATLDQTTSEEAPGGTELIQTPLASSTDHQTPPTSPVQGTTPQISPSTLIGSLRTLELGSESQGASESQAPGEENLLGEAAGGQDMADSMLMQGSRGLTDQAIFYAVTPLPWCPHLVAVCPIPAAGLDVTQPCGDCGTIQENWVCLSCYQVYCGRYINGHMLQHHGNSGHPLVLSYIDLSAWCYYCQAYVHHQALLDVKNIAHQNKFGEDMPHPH
Chain of human recombinant SIRT2 (Q8IXJ6 whole entry): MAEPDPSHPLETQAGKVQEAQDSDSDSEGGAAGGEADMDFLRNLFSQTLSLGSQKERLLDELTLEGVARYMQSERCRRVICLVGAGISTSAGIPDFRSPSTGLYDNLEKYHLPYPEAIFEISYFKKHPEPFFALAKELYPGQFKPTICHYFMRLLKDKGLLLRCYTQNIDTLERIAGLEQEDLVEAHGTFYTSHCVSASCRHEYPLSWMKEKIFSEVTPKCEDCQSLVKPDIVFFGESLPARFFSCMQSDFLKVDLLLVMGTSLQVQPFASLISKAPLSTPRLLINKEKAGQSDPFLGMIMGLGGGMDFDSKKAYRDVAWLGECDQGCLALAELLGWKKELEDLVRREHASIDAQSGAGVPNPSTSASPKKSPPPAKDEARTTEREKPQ

O=C(NCCSSCCNC(=O)C(Cc1c[nH]c2ccc(Br)cc12)=NO)C(Cc1c[nH]c2ccc(Br)cc12)=NO [UVI5008]
cell cycle arrest, position of the block ([1]; 1 μM): arrests cells in G2-M
cell cycle arrest, position of the block ([1]; 1 and 5 μM): arrests in the S and G2 phases
DNMT inhibition [2]: nearly as active as RG108 albeit at higher concentrations
IC50 [3]: 7.8 µM
inhibition of HDAC6 (alpha tubulin acetylation) [4]: inhibited the activity of HDAC6
apoptotic activity ([5]; 5 μM, two samples of patient blasts): showed an apoptotic activity
cell cycle arrest and apoptosis (caspase 3 activation) ([5]; 4 ex vivo cultures, AML patients #102, #108, #109, #116): induced cell cycle arrest and apoptosis
anti-proliferative and apoptogenic action [6]: confirmed
IC50 [7]: 3.1 ± 0.5 µM
